Assay results: ChEMBL document CHEMBL1201862, “PubChem BioAssay data set” (2004)
Active and inactive are the calls of the source.

Tests used:
Type in all cases: functional
[1] = biological target: Dual specificity mitogen-activated protein kinase kinase 1 (Homo sapiens, UniProt Q02750); assay: Navigating the Kinome. Panel member name: MAP2K1
[2] = biological target: T1, Tyrosine-protein kinase receptor TYRO3 (Homo sapiens, UniProt Q06418);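 note: TYRO3 value obtained as one member of a kinome-wide profiling panel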
T1 sequence (Q06418 whole entry): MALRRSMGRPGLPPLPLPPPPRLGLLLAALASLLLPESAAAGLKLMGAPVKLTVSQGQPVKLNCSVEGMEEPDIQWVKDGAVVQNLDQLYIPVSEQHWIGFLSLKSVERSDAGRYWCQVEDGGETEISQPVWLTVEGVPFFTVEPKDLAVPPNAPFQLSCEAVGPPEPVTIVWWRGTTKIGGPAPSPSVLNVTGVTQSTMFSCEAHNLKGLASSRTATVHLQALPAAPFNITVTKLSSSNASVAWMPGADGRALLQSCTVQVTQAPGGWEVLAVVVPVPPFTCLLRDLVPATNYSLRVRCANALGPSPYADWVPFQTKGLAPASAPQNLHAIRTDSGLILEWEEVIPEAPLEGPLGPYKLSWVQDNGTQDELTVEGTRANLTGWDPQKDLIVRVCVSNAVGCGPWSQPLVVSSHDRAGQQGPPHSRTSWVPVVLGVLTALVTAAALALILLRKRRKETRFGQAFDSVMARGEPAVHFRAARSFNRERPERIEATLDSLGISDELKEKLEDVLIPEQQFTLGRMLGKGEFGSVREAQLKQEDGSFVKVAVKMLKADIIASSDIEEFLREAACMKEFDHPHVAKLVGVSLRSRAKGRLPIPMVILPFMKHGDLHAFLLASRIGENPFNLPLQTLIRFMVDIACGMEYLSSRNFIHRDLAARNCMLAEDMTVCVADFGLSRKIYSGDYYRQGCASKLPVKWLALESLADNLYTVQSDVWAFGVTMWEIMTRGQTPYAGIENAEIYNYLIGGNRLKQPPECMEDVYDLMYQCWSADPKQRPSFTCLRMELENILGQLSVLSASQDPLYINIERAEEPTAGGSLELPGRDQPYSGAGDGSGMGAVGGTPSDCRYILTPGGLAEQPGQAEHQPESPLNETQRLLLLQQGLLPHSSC

[3] = biological target: Death-associated protein kinase 3 (Homo sapiens, UniProt O43293);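 note: measured as one member of a kinome-wide profiling panel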
[4] = biological target: Mitogen-activated protein kinase 8 (Homo sapiens, UniProt P45983);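 note: value comes from one member of a kinome-wide kinase profiling panel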
[5] = biological target: Serine/threonine-protein kinase pim-1 (Homo sapiens, UniProt P11309)
[6] = biological target: T2, Aurora kinase A (Homo sapiens, UniProt O14965);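 note: value from the Navigating the Kinome kinase panel profiling, panel entry STK6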
T2 sequence (O14965 whole entry): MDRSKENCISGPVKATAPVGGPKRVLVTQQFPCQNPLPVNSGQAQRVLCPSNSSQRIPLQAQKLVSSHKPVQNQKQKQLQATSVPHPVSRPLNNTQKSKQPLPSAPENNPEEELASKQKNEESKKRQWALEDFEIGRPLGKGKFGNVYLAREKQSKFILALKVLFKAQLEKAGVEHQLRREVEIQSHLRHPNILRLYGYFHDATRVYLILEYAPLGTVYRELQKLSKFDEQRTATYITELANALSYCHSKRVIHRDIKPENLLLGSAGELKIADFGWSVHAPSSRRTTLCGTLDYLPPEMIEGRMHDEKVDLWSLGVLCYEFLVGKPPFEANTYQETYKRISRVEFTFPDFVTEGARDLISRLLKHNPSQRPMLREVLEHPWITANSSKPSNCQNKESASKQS

[7] = biological target: LIM domain kinase 1 (Homo sapiens, UniProt P53667); assay: Navigating the Kinome. Panel member name: LIMK1
[8] = biological target: T3, Serine/threonine-protein kinase TAO1 (Homo sapiens, UniProt Q7L7X3)
T3 sequence (Q7L7X3 whole entry): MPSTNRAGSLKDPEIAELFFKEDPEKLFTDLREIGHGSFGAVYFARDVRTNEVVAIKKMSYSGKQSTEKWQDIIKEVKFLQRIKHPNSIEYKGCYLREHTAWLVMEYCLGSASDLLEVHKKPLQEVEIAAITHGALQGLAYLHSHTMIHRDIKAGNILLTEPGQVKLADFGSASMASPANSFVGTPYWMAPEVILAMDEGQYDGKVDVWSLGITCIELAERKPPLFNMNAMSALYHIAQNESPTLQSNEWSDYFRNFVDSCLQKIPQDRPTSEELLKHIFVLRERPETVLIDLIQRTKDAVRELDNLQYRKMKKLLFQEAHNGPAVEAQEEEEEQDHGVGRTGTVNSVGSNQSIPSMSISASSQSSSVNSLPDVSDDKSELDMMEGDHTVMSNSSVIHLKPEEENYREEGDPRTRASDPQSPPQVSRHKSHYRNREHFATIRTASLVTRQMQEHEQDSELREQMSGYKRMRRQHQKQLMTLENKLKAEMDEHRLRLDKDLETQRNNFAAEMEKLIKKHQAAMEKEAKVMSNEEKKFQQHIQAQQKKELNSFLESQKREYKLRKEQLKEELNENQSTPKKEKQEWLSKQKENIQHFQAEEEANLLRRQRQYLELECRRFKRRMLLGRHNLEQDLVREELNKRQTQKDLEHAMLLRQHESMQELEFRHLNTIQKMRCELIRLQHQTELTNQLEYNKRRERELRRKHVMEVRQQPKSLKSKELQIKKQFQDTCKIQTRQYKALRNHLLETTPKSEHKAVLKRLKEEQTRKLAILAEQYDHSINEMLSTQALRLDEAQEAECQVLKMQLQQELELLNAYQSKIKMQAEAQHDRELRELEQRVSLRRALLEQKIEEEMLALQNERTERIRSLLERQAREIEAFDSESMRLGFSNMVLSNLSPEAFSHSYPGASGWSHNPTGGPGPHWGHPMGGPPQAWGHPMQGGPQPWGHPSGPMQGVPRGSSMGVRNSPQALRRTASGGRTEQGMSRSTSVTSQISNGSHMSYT

[9] = biological target: High affinity nerve growth factor receptor (Homo sapiens, UniProt P04629);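 note: NTRK1 tested as one member of a kinome-wide profiling panel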
[10] = biological target: Hepatocyte growth factor receptor (Homo sapiens, UniProt P08581);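 note: kinase panel profiling across the kinome, with MET as the panel member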
[11] = biological target: Activated CDC42 kinase 1 (Homo sapiens, UniProt Q07912); assay: Navigating the Kinome. Panel member name: ACK1
[12] = biological target: Platelet-derived growth factor receptor alpha (Homo sapiens, UniProt P16234); assay: Navigating the Kinome. Panel member name: PDGFRA
[13] = biological target: Tyrosine-protein kinase Fyn (Homo sapiens, UniProt P06241)
[14] = biological target: Vascular endothelial growth factor receptor 1 (Homo sapiens, UniProt P17948);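 note: measured within a kinome-wide profiling panel, FLT1 as the panel member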
[15] = biological target: Calcium/calmodulin-dependent protein kinase type II subunit alpha (Homo sapiens, UniProt Q9UQM7); assay: Navigating the Kinome. Panel member name: CAMK2A
Chain of Calcium/calmodulin-dependent protein kinase type II subunit alpha (Q9UQM7 whole entry): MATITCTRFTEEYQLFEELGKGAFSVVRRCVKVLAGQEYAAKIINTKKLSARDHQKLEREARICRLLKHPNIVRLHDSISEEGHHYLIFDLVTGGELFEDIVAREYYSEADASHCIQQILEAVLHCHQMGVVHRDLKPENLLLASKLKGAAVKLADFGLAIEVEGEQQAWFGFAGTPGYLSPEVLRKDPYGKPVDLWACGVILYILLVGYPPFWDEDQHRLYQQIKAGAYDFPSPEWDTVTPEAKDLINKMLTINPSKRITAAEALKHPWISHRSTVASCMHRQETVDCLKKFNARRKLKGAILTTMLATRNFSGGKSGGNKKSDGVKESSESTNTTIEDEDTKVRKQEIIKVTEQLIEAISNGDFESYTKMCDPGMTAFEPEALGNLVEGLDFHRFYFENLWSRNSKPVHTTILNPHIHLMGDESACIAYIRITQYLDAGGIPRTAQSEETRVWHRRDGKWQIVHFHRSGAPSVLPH

Chain of Activated CDC42 kinase 1 (Q07912 whole entry): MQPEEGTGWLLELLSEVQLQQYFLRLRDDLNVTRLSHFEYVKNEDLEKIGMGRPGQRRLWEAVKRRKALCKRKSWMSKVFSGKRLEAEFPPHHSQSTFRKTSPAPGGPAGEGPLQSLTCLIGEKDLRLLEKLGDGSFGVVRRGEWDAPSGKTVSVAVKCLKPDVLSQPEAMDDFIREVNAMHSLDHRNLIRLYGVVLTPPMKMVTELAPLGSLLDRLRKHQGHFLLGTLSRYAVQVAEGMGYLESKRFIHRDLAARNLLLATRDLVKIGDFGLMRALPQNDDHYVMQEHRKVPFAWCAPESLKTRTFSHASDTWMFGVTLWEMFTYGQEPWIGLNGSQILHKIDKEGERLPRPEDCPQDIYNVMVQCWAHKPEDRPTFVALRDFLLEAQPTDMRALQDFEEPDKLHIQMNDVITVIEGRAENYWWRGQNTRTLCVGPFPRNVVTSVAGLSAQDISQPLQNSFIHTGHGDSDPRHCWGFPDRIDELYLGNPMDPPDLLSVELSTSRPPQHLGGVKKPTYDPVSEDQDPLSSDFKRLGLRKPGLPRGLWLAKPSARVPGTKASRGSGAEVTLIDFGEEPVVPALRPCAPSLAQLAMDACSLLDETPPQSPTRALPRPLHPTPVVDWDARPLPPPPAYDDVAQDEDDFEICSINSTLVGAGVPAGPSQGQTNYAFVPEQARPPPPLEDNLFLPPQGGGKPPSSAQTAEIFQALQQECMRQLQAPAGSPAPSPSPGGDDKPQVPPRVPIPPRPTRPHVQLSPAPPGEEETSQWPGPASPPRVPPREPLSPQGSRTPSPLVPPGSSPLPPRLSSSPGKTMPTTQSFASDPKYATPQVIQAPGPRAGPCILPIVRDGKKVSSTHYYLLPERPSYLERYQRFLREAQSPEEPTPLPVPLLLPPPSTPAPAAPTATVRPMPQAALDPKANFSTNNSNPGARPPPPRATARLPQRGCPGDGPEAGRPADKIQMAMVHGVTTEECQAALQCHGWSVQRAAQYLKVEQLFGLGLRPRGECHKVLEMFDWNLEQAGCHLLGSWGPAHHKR
Chain of High affinity nerve growth factor receptor (P04629 whole entry): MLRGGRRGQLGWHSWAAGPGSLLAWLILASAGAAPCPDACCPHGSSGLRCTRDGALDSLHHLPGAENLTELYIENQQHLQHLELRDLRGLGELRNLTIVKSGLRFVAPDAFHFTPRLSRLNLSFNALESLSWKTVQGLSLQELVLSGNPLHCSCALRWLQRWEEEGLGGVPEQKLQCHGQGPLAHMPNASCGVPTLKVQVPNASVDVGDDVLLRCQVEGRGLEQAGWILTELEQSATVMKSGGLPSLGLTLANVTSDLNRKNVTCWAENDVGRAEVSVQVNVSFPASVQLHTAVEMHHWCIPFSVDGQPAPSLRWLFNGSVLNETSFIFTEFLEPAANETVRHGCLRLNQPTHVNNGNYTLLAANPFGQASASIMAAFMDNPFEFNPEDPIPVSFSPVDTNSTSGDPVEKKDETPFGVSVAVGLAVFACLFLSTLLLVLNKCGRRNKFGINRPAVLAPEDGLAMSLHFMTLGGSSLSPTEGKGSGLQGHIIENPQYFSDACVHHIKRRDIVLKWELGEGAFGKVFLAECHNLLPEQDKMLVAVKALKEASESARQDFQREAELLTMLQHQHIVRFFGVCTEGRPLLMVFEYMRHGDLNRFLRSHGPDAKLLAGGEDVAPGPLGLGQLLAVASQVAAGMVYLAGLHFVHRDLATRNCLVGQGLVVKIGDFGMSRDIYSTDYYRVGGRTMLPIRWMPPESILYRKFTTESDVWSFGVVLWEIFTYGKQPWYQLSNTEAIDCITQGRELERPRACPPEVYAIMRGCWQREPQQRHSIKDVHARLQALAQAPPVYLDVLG
Chain of Death-associated protein kinase 3 (O43293 whole entry): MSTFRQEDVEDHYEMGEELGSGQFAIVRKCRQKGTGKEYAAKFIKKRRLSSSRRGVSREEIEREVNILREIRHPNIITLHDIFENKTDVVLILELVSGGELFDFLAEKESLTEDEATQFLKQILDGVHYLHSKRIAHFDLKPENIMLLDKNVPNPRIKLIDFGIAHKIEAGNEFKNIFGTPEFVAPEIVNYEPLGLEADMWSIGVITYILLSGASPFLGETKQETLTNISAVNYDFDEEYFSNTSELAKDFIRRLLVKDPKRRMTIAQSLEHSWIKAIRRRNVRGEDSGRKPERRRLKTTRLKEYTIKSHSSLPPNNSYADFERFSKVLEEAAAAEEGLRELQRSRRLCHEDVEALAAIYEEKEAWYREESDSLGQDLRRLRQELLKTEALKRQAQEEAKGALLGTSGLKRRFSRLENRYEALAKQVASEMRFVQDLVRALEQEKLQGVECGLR
Chain of Vascular endothelial growth factor receptor 1 (P17948 whole entry): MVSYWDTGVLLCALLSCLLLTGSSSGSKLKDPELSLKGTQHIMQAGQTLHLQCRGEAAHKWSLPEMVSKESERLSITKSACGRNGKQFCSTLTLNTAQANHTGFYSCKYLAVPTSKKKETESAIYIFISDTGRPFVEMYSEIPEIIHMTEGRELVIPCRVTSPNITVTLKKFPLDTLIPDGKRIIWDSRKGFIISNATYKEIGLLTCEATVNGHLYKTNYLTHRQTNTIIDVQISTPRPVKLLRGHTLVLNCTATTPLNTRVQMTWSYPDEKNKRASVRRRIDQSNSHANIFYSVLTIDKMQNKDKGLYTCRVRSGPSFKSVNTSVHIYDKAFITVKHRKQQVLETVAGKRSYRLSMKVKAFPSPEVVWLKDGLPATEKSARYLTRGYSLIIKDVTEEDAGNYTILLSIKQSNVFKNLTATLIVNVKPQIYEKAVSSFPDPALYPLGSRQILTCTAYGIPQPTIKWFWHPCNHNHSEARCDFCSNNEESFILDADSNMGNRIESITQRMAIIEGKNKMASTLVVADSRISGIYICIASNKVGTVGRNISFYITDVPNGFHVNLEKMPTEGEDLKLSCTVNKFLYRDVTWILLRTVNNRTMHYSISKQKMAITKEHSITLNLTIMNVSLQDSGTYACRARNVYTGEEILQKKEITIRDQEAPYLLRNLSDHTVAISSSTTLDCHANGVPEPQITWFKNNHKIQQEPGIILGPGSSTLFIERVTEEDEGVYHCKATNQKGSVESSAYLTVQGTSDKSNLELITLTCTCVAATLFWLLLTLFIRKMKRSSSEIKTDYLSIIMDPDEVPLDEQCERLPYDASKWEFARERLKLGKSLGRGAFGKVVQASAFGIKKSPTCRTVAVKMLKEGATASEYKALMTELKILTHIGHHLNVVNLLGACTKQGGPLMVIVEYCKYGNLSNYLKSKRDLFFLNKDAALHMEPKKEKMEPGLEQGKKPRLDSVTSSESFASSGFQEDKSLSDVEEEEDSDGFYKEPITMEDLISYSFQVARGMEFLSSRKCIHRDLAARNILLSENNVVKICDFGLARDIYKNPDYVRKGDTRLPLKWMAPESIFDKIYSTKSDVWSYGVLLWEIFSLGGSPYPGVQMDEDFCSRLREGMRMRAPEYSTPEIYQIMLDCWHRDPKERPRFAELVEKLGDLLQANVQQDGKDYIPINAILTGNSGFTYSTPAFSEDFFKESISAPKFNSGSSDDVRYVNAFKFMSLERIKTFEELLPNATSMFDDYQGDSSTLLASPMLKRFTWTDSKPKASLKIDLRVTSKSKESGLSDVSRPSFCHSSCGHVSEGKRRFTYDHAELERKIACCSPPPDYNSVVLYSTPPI
Chain of Tyrosine-protein kinase Fyn (P06241 whole entry): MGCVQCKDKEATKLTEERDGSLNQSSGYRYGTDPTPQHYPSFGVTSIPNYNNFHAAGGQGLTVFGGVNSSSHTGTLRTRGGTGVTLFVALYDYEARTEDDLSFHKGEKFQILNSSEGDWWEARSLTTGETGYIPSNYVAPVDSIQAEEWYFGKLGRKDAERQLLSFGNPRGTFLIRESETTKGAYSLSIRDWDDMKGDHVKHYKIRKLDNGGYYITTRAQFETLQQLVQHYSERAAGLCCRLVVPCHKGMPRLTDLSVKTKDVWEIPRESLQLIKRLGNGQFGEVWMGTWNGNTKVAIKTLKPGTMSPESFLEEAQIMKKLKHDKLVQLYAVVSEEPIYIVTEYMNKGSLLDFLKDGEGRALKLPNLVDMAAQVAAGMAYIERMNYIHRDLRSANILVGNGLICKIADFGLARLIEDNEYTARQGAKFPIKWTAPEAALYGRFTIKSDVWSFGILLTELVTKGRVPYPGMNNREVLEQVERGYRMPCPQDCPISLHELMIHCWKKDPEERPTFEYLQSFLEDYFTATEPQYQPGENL
Chain of Dual specificity mitogen-activated protein kinase kinase 1 (Q02750 whole entry): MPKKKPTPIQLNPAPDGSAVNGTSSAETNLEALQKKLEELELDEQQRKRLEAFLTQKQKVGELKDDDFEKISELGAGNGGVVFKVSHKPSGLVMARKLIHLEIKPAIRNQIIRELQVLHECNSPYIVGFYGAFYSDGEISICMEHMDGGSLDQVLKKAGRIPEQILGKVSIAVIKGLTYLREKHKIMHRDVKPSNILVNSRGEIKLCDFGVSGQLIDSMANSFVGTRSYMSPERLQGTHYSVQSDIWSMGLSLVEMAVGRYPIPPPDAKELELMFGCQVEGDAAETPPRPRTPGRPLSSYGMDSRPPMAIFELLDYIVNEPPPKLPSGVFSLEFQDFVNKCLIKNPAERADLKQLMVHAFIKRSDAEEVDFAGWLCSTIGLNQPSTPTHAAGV

SMILES: CN1CCC(c2c(O)cc(O)c3c(=O)cc(-c4ccccc4Cl)oc23)C(O)C1 (stereo not given)
- Ki [1]: > 3.16 µM (inactive)
- Ki [2]: > 2.51 µM (inactive)
- Ki [3]: > 3.16 µM (inactive)
- Ki [4]: > 3.98 µM (inactive)
- Ki [5]: 0.794 µM (active)
- Ki [6]: > 1.58 µM (inactive)
- Ki [7]: > 3160 nM (inactive)
- Ki [8]: 0.794 µM (active)
- Ki [9]: > 2.51 µM (inactive)
- Ki [10]: > 2510 nM (inactive)
- Ki [11]: > 3.98 µM (inactive)
- Ki [12]: > 2.51 µM (inactive)
- Ki [13]: > 3.16 µM (inactive)
- Ki [14]: > 2 µM (inactive)
- Ki [15]: > 3.98 µM (inactive)

SMILES: Cc1ccc(C)c(NC(=O)c2cc(-c3ccco3)nc3ccccc23)c1
- Ki [1]: > 3.16 µM (inactive)
- Ki [2]: 0.316 µM (active)
- Ki [3]: 5.01 µM (active)
- Ki [4]: > 5.01 µM (inactive)
- Ki [5]: 1.26 µM (active)
- Ki [6]: 1 µM (active)
- Ki [7]: 316 nM (active)
- Ki [8]: 3.98 µM (active)
- Ki [9]: 1 µM (active)
- Ki [10]: 631 nM (active)
- Ki [11]: > 3.98 µM (inactive)
- Ki [12]: 2 µM (active)
- Ki [13]: > 6.31 µM (inactive)
- Ki [14]: 3.16 µM (active)
- Ki [15]: 3.16 µM (active)

SMILES: COc1ccc(C2=NNc3cccc4c(OC)ccc2c34)cc1OC
- Ki [1]: > 3.16 µM (inactive)
- Ki [2]: 1 µM (active)
- Ki [3]: 0.794 µM (active)
- Ki [4]: > 5.01 µM (inactive)
- Ki [5]: > 6.31 µM (inactive)
- Ki [6]: > 1.58 µM (inactive)
- Ki [7]: 31.6 nM (active)
- Ki [8]: 1 µM (active)
- Ki [9]: > 3.16 µM (inactive)
- Ki [10]: 316 nM (active)
- Ki [11]: 1.26 µM (active)
- Ki [12]: 0.2 µM (active)
- Ki [13]: > 6.31 µM (inactive)
- Ki [14]: 0.316 µM (active)
- Ki [15]: > 3.98 µM (inactive)
